In ChEMBL document CHEMBL3421625, “Discovery and optimization of novel antagonists to the human neurokinin-3 receptor for the treatment of sex-hormone disorders (Part I)” (J Med Chem, 2015):
Active and inactive are the calls of the source. The rule behind the calls is not given here.

Experiments:
[1] = Volume of distribution at steady state in castrated cynomolgus monkey at 10 mg/kg, iv by LC-MS/MS analysis; conditions: male, in vivo
[2] = target: Voltage-gated inwardly rectifying potassium channel KCNH2 (Homo sapiens, UniProt Q12809)
Voltage-gated inwardly rectifying potassium channel KCNH2, sequence (Q12809 whole entry): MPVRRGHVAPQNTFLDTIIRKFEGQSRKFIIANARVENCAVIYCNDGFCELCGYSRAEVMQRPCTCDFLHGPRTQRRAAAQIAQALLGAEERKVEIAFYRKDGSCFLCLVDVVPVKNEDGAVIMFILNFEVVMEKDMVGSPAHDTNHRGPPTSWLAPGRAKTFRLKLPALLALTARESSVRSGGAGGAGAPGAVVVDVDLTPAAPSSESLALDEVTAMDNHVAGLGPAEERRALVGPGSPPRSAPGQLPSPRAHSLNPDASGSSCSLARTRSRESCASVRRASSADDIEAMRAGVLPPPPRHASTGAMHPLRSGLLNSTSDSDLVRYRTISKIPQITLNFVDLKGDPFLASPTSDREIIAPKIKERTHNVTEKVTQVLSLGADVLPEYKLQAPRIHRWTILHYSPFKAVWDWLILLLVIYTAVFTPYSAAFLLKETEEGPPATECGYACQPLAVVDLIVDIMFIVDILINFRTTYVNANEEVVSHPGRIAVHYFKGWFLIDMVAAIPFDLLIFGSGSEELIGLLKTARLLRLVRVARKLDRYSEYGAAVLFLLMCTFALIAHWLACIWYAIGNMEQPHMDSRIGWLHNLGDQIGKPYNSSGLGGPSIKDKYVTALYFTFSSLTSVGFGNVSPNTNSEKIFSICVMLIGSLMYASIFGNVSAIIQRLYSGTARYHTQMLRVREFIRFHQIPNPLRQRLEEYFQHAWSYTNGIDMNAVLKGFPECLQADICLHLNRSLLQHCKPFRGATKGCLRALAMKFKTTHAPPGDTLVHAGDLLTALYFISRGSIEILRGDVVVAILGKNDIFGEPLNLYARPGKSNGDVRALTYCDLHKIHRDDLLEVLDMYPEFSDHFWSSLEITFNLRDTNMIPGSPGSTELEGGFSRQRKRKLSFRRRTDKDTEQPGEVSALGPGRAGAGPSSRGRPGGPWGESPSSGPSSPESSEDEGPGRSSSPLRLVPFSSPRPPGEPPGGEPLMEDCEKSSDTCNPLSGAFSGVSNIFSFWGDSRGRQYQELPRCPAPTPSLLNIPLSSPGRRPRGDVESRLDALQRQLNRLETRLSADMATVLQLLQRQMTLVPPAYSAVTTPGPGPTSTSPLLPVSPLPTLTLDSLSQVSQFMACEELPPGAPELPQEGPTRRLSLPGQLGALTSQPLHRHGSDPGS
Description: Inhibition of human ERG expressed in HEK293 cells after 5 mins by patch-clamp assay

Rattus norvegicus [3] = assay: Hepatotoxicity in Sprague-Dawley rat assessed as effect on AST level at 30 mg/kg, po bid administered for 5 days; format: toxicity, organism-based; parameters: dose 30 mg/kg, route oral; conditions: in vivo, 120 h
[4] = Apparent permeability across basolateral to apical side in human Caco2 cells in presence of 0.1% bovine serum albumin; conditions: Caco-2
Rattus norvegicus [5] = assay: Drug uptake in Sprague-Dawley rat at 30 mg/kg, po bid administered for 5 days; format: ADME, organism-based; parameters: dose 30 mg/kg, route oral; conditions: in vivo, 120 h
Rattus norvegicus [6] = assay: Hepatotoxicity in Sprague-Dawley rat assessed as effect on bilirubin level at 30 mg/kg, po bid administered for 5 days; format: toxicity, organism-based; parameters: dose 30 mg/kg, route oral; conditions: in vivo, 120 h
Rattus norvegicus [7] = assay: Hepatotoxicity in Sprague-Dawley rat assessed as effect on ALT level at 30 mg/kg, po bid administered for 5 days; format: toxicity, organism-based; parameters: dose 30 mg/kg, route oral; conditions: in vivo, 120 h
[8] = Tmax in castrated cynomolgus monkey at 20 mg/kg, po by LC-MS/MS analysis; format: ADME, organism-based, Macaca fascicularis; parameters: dose 20 mg/kg, route oral; conditions: male, in vivo
[9] = target: Neuropeptide FF receptor 1 (Homo sapiens) (UniProt Q9GZQ6); assay: Inhibition of NPFF1 (unknown origin) at 10 uM relative to control
Neuropeptide FF receptor 1 (Homo sapiens), sequence (Q9GZQ6 whole entry): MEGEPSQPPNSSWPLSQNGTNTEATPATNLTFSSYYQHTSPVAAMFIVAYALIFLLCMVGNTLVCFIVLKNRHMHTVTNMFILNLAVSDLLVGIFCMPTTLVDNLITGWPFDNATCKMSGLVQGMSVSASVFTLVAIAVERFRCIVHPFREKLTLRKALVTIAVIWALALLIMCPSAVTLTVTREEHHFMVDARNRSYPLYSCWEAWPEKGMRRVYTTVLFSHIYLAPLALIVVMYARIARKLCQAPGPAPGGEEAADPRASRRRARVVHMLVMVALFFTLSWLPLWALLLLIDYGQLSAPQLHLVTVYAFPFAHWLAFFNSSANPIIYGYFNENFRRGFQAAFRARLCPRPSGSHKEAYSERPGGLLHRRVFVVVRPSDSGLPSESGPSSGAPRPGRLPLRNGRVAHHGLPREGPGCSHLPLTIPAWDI

Cynomolgus monkey [10] = assay: Unbound AUC in castrated cynomolgus monkey at 10 mg/kg, iv by LC-MS/MS analysis; format: ADME, organism-based, Macaca fascicularis; parameters: dose 10 mg/kg, route intravenous; conditions: in vivo
Cynomolgus monkey [11] = assay: Unbound Cmax in castrated cynomolgus monkey at 5 mg/kg, po by LC-MS/MS analysis; format: ADME, organism-based, Macaca fascicularis; parameters: dose 5 mg/kg, route oral; conditions: in vivo
Cynomolgus monkey [12] = assay: In vivo inhibition of NK3R in castrated cynomolgus monkey assessed as decrease in plasma luteinizing hormone level at 20 mg/kg, po measured at 90 to 300 mins; format: functional, organism-based; parameters: dose 20 mg/kg; conditions: Macaca fascicularis
Cynomolgus monkey [13] = assay: Unbound AUC in castrated cynomolgus monkey at 20 mg/kg, po by LC-MS/MS analysis; format: ADME, organism-based, Macaca fascicularis; parameters: dose 20 mg/kg, route oral; conditions: in vivo
[14] = target: Kappa-type opioid receptor (Homo sapiens) (UniProt P41145); assay: Inhibition of KOR (unknown origin) at 10 uM relative to control
Kappa-type opioid receptor (Homo sapiens), sequence (P41145 whole entry): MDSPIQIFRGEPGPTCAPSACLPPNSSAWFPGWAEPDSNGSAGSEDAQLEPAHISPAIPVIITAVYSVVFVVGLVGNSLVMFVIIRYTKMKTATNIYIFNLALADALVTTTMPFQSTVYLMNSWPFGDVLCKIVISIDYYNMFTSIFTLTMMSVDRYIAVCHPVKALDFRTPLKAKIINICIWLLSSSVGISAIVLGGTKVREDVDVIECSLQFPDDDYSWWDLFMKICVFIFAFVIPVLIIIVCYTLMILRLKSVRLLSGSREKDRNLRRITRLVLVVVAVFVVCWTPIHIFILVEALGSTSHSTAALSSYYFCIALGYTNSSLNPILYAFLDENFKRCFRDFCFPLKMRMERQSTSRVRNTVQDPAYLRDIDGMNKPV

Cynomolgus monkey [15] = assay: Unbound Cmax in castrated cynomolgus monkey at 20 mg/kg, po by LC-MS/MS analysis; format: ADME, organism-based, Macaca fascicularis; parameters: dose 20 mg/kg, route oral; conditions: in vivo
Cynomolgus monkey [16] = assay: In vivo inhibition of NK3R in castrated cynomolgus monkey assessed as decrease in plasma luteinizing hormone level at 20 mg/kg, po measured at 480 mins; format: functional, organism-based; parameters: dose 20 mg/kg; conditions: Macaca fascicularis
[17] = Apparent permeability across apical to basolateral side in human Caco2 cells in presence of 0.1% bovine serum albumin; conditions: Caco-2
Cynomolgus monkey [18] = assay: In vivo inhibition of NK3R in castrated cynomolgus monkey assessed as decrease in plasma luteinizing hormone level at 20 mg/kg, po measured at 90 mins relative to control; format: functional; conditions: Macaca fascicularis, 1.5 h
[19] = Total systemic clearance in castrated cynomolgus monkey at 10 mg/kg, iv by LC-MS/MS analysis; format: ADME, organism-based, Macaca fascicularis; parameters: dose 10 mg/kg, route intravenous; conditions: male, in vivo
Substance-K receptor = target: T1, Substance-K receptor (Homo sapiens, UniProt P21452); assay: Displacement of [125I]-neurokinin A from human NK2R after 90 mins by scintillation counting analysis
T1 sequence (P21452 whole entry): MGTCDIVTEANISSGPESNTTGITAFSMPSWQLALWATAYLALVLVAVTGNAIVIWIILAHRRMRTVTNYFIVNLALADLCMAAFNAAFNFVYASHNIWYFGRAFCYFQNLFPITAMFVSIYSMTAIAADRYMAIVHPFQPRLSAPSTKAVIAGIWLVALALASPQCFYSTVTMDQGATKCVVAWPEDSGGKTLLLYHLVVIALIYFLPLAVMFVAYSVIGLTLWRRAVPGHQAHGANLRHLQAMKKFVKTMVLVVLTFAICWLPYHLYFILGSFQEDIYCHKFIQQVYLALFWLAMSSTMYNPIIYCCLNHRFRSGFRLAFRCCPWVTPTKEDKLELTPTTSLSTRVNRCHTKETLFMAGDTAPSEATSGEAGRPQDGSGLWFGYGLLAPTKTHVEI

in vivo [20] = conditions: Sprague-Dawley, rat, iv, 1 mg/kg
Neuromedin-K receptor [21] = target: T2, Neuromedin-K receptor (Homo sapiens, UniProt P29371)
T2 sequence (P29371 whole entry): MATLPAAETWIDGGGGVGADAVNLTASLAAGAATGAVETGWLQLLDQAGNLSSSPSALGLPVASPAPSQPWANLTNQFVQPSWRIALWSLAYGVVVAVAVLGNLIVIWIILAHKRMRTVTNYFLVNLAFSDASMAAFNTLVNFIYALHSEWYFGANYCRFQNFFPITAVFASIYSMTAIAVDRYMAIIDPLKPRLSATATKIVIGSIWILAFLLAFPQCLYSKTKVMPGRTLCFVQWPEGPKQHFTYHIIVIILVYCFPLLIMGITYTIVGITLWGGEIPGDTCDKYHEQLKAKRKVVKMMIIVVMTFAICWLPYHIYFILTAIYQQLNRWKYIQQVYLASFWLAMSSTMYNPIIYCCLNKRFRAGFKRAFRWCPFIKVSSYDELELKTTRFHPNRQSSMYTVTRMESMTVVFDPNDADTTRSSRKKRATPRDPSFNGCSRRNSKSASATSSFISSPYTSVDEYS

Rattus norvegicus [22] = assay: In vivo inhibition of NK3R in castrated Sprague-Dawley rat assessed as decrease in serum luteinizing hormone level at 10 mg/kg, iv by radioimmunoassay relative to control; format: functional
Neuromedin-K receptor [23] = target: T2, Neuromedin-K receptor; assay: biochemical
Description: Displacement of [3H]-SB222200 from recombinant human NK3R expressed in CHO cell membranes after 90 mins by scintillation counting analysis

in vivo [24] = conditions: Sprague-Dawley, rat, po, 3 mg/kg
Substance-P receptor = Substance-P receptor (Homo sapiens, UniProt P25103)
Substance-P receptor, sequence (P25103 whole entry): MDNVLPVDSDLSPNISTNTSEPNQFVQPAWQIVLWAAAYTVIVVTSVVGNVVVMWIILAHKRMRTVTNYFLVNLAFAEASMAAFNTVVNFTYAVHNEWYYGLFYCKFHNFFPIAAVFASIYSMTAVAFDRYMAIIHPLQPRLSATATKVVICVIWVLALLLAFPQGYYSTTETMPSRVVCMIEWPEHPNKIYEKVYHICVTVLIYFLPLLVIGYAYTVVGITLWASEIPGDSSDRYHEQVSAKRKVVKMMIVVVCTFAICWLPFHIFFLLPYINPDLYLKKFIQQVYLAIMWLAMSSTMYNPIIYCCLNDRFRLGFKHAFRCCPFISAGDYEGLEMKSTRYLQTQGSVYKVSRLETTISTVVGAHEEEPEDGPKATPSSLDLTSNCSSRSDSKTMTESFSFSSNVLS
Description: Displacement of [3H]-Substance P from human NK1R after 90 mins by scintillation counting analysis

Cc1nc(-c2nnc3n2CCN(C(=O)c2ccc(-c4cccs4)cc2)[C@@H]3C)cs1
Vd [1]: 1.52 L/kg | IC50 [2]: 24000 nM | Activity (Rattus norvegicus [3]): Non-toxic | Papp B→A [4]: 52.9 ×10⁻⁶ cm/s | Drug uptake (Rattus norvegicus [5]): Not Active | Activity (Rattus norvegicus [6]): Non-toxic | Activity (Rattus norvegicus [7]): Non-toxic | Tmax [8]: 1 h | inhibition [9]: 18% | fAUC (Cynomolgus monkey [10]): 1.055 µM·h | fCmax (Cynomolgus monkey [11]): 17.9 nM | inhibition (Cynomolgus monkey [12]): Active | fAUC (Cynomolgus monkey [13]): 0.526 µM·h | inhibition [14]: 25% | fCmax (Cynomolgus monkey [15]): 237 nM | inhibition (Cynomolgus monkey [16]): inactive | Papp A→B [17]: 48.2 ×10⁻⁶ cm/s | inhibition in vivo at 20 mg/kg (Cynomolgus monkey [18]): 40% | clearance [19]: 16.5 mL/min/kg

C[C@@H]1c2nnc(-c3csc(-c4ccc(F)cc4F)n3)n2CCN1C(=O)c1ccc(-c2cccs2)cc1
Ki (Substance-K receptor): 794 nM | half-life (in vivo [20]): 5.35 h | IC50 (Neuromedin-K receptor [21]): 20 nM | inhibition in vivo at 10 mg/kg (Rattus norvegicus [22]): 50% | Ki (Neuromedin-K receptor [23]): 2 nM | bioavailability (in vivo [24]): 17% | Ki (Substance-P receptor): 1260 nM
